Several values for one entry are separate records, joined by “and”; a condition that tells them apart may be missing. Equal entries are not always repeated.
Test system: NCI-H841 complex tumor spheroid viability
Assay: Anticancer human tumor NCI-H841 cell line growth inhibition;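 also: spheroids exposed to compounds for 7 days before readout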;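 as to viability, T/C: 100% = DMSO vehicle control wells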
Settings: for viability, T/C: stronger effect = lower value
Procedure, shortened: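 Single agents and combinations were tested on spheroids built from tumor cells plus HUVEC and hMSC, at half-log dilutions starting at or near clinical Cmax, else 10 microM; final DMSO 0.25% (v/v).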

[1] = curve of first compound, second compound 30 pM
[2] = curve of first compound, second compound 94.9 pM
[3] = curve of first compound, second compound 0.0003 µM
[4] = curve of first compound, second compound 0.000949 µM
[5] = curve of first compound, second compound 0.003 µM

COc1cc2c(cc1O)CCNC21CSC2c3c(OC(C)=O)c(C)c4c(c3C(COC1=O)N1C(O)C3Cc5cc(C)c(OC)c(O)c5C(C21)N3C)OCO4 (configuration not stated) was tested, and the viability, T/C (compound 30 pM) was 102% [middle of 10 runs], the viability, T/C (compound 94.9 pM) was 99.5% [middle of 10 runs] and the viability, T/C (compound 0.000949 µM) was 3.1% [middle of 10 runs]. For the same compound, the viability, T/C (compound 0.003 µM) was 0.11% [middle of 4 runs] and the IC50 (compound alone, run of 12/16/2019) was 0.258 nM [middle of 10 runs].

COc1cc(C)[nH]c(=O)c1CN1CCc2c(Cl)cc(C(OC)C3COC3)c(Cl)c2C1=O (configuration not stated) + Cn1nnc2c(C(N)=O)ncn2c1=O showed an IC50 (curve of first compound, second compound 1 µM) of 398 nM, an IC50 (curve of first compound, second compound 3.16 µM) of 547 nM and an IC50 (curve of first compound, second compound 10 µM) of 367 nM. For the same compound, the IC50 (curve of first compound, second compound 31.6 µM) was 428 nM, the IC50 (curve of first compound, second compound 100 µM) was 394 nM and the viability, T/C (second compound 1 µM, first compound 0.0316 µM) was 79.7%. The viability, T/C (second compound 1 µM, first compound 0.1 µM) was 67.1%, the viability, T/C (second compound 1 µM, first compound 0.316 µM) was 48.4% and the viability, T/C (second compound 1 µM, first compound 1 µM) was 45.4%. For the same compound, the viability, T/C (second compound 1 µM, first compound 3.16 µM) was 33.9%, the viability, T/C (second compound 1 µM, first compound 10 µM) was 31.3% and the viability, T/C (second compound 3.16 µM, first compound 0.0316 µM) was 85%. For the same compound, the viability, T/C (second compound 3.16 µM, first compound 0.1 µM) was 63.5%, the viability, T/C (second compound 3.16 µM, first compound 0.316 µM) was 54.5% and the viability, T/C (second compound 3.16 µM, first compound 1 µM) was 47.8%. It also gave a viability, T/C (second compound 3.16 µM, first compound 3.16 µM) of 38.5%, a viability, T/C (second compound 3.16 µM, first compound 10 µM) of 32.8% and a viability, T/C (second compound 10 µM, first compound 0.0316 µM) of 86%. For the same compound, the viability, T/C (second compound 10 µM, first compound 0.1 µM) was 67%, the viability, T/C (second compound 10 µM, first compound 0.316 µM) was 50.6% and the viability, T/C (second compound 10 µM, first compound 1 µM) was 41.1%. It also gave a viability, T/C (second compound 10 µM, first compound 3.16 µM) of 35.9%, a viability, T/C (second compound 10 µM, first compound 10 µM) of 30.9% and a viability, T/C (second compound 31.6 µM, first compound 0.0316 µM) of 83.9%. It also gave a viability, T/C (second compound 31.6 µM, first compound 0.1 µM) of 70.3%, a viability, T/C (second compound 31.6 µM, first compound 0.316 µM) of 49.8% and a viability, T/C (second compound 31.6 µM, first compound 1 µM) of 41.8%. It also gave a viability, T/C (second compound 31.6 µM, first compound 3.16 µM) of 36.9%, a viability, T/C (second compound 31.6 µM, first compound 10 µM) of 27% and a viability, T/C (second compound 100 µM, first compound 0.0316 µM) of 87.3%. For the same compound, the viability, T/C (second compound 100 µM, first compound 0.1 µM) was 77.6%, the viability, T/C (second compound 100 µM, first compound 0.316 µM) was 51.2% and the viability, T/C (second compound 100 µM, first compound 1 µM) was 39.9%. It also gave a viability, T/C (second compound 100 µM, first compound 3.16 µM) of 36.5% and a viability, T/C (second compound 100 µM, first compound 10 µM) of 30.8%.

Work on Cn1ncnc1[C@H]1c2n[nH]c(=O)c3cc(F)cc(c23)N[C@@H]1c1ccc(F)cc1 + COc1cc2c(cc1O)CCNC21CSC2c3c(OC(C)=O)c(C)c4c(c3C(COC1=O)N1C(O)C3Cc5cc(C)c(OC)c(O)c5C(C21)N3C)OCO4 yielded an IC50 [1] of 514 nM, an IC50 [2] of 252 nM and an IC50 [3] of under 9.49 nM. For the same compound, the IC50 [4] was under 9.49 nM, the IC50 [5] was under 9.49 nM and the viability, T/C (second compound 30 pM, first compound 0.00949 µM) was 94%. For the same compound, the viability, T/C (second compound 30 pM, first compound 0.03 µM) was 91.6%, the viability, T/C (second compound 30 pM, first compound 0.0949 µM) was 86.4% and the viability, T/C (second compound 30 pM, first compound 0.3 µM) was 71.3%. The viability, T/C (second compound 30 pM, first compound 0.949 µM) was 26.4%, the viability, T/C (second compound 30 pM, first compound 3 µM) was 1.05% and the viability, T/C (second compound 94.9 pM, first compound 0.00949 µM) was 85.6%. For the same compound, the viability, T/C (second compound 94.9 pM, first compound 0.03 µM) was 76.5%, the viability, T/C (second compound 94.9 pM, first compound 0.0949 µM) was 66.1% and the viability, T/C (second compound 94.9 pM, first compound 0.3 µM) was 51.5%. The viability, T/C (second compound 94.9 pM, first compound 0.949 µM) was 11%, the viability, T/C (second compound 94.9 pM, first compound 3 µM) was 1.19% and the viability, T/C (second compound 0.0003 µM, first compound 0.00949 µM) was 16.7%. The viability, T/C (second compound 0.0003 µM, first compound 0.03 µM) was 9.8%, the viability, T/C (second compound 0.0003 µM, first compound 0.0949 µM) was 7.64% and the viability, T/C (second compound 0.0003 µM, first compound 0.3 µM) was 2.97%. The viability, T/C (second compound 0.0003 µM, first compound 0.949 µM) was 1.63%, the viability, T/C (second compound 0.0003 µM, first compound 3 µM) was 1.27% and the viability, T/C (second compound 0.000949 µM, first compound 0.00949 µM) was 3.02%. It also gave a viability, T/C (second compound 0.000949 µM, first compound 0.03 µM) of 3.35%, a viability, T/C (second compound 0.000949 µM, first compound 0.0949 µM) of 2.75% and a viability, T/C (second compound 0.000949 µM, first compound 0.3 µM) of 2.82%. For the same compound, the viability, T/C (second compound 0.000949 µM, first compound 0.949 µM) was 2.18%, the viability, T/C (second compound 0.000949 µM, first compound 3 µM) was 0.23% and the viability, T/C (second compound 0.003 µM, first compound 0.00949 µM) was 0.11%. It also gave a viability, T/C (second compound 0.003 µM, first compound 0.03 µM) of 0.12%, a viability, T/C (second compound 0.003 µM, first compound 0.0949 µM) of 0.12% and a viability, T/C (second compound 0.003 µM, first compound 0.3 µM) of 0.1%. It also gave a viability, T/C (second compound 0.003 µM, first compound 0.949 µM) of 0.1% and a viability, T/C (second compound 0.003 µM, first compound 3 µM) of 0.19%.

In the case of CC(C)n1c(=O)n(C)c2cnc3cc(F)c(-c4ccc(OCCCN5CCCCC5)nc4)cc3c21, the viability, T/C (compound 0.0316 µM) is reported as 96.6% and 93.7% and 101%, the viability, T/C (compound 0.1 µM) is reported as 94.6% and 91.3% and 99.4% and the viability, T/C (compound 0.316 µM) is reported as 93.6% and 95.8% and 99.8%. The viability, T/C (compound 1 µM) was 94.1% and 91.1% and 99.3%, the viability, T/C (compound 3.16 µM) was 91.6% and 80.8% and 97% and the viability, T/C (compound 10 µM) was 88.3% and 76.8% and 90.8%. The IC50 (curve of compound) was over 10000 nM.

Cc1cc(C)c(CNC(=O)c2cc(-c3ccc(CN4CCOCC4)cc3)cc3c2cnn3C2CCCC2)c(=O)[nH]1 + COc1cc2c(cc1O)CCNC21CSC2c3c(OC(C)=O)c(C)c4c(c3C(COC1=O)N1C(O)C3Cc5cc(C)c(OC)c(O)c5C(C21)N3C)OCO4 showed an IC50 [1] of over 10000 nM, an IC50 [2] of over 10000 nM and an IC50 [3] of under 31.6 nM. The IC50 [4] was under 31.6 nM, the IC50 [5] was under 31.6 nM and the viability, T/C (second compound 30 pM, first compound 0.0316 µM) was 99.7%. The viability, T/C (second compound 30 pM, first compound 0.1 µM) was 102%, the viability, T/C (second compound 30 pM, first compound 0.316 µM) was 104% and the viability, T/C (second compound 30 pM, first compound 1 µM) was 95.4%. For the same compound, the viability, T/C (second compound 30 pM, first compound 3.16 µM) was 87%, the viability, T/C (second compound 30 pM, first compound 10 µM) was 65% and the viability, T/C (second compound 94.9 pM, first compound 0.0316 µM) was 99.5%. It also gave a viability, T/C (second compound 94.9 pM, first compound 0.1 µM) of 99.7%, a viability, T/C (second compound 94.9 pM, first compound 0.316 µM) of 97% and a viability, T/C (second compound 94.9 pM, first compound 1 µM) of 89.5%. For the same compound, the viability, T/C (second compound 94.9 pM, first compound 3.16 µM) was 84.7%, the viability, T/C (second compound 94.9 pM, first compound 10 µM) was 57% and the viability, T/C (second compound 0.0003 µM, first compound 0.0316 µM) was 38.6%. For the same compound, the viability, T/C (second compound 0.0003 µM, first compound 0.1 µM) was 44%, the viability, T/C (second compound 0.0003 µM, first compound 0.316 µM) was 46.7% and the viability, T/C (second compound 0.0003 µM, first compound 1 µM) was 32.2%. It also gave a viability, T/C (second compound 0.0003 µM, first compound 3.16 µM) of 25.2%, a viability, T/C (second compound 0.0003 µM, first compound 10 µM) of 7.36% and a viability, T/C (second compound 0.000949 µM, first compound 0.0316 µM) of 2.45%. The viability, T/C (second compound 0.000949 µM, first compound 0.1 µM) was 2.86%, the viability, T/C (second compound 0.000949 µM, first compound 0.316 µM) was 3.65% and the viability, T/C (second compound 0.000949 µM, first compound 1 µM) was 2.33%. It also gave a viability, T/C (second compound 0.000949 µM, first compound 3.16 µM) of 2.54%, a viability, T/C (second compound 0.000949 µM, first compound 10 µM) of 1.15% and a viability, T/C (second compound 0.003 µM, first compound 0.0316 µM) of 0.26%. The viability, T/C (second compound 0.003 µM, first compound 0.1 µM) was 0.12%, the viability, T/C (second compound 0.003 µM, first compound 0.316 µM) was 0.11% and the viability, T/C (second compound 0.003 µM, first compound 1 µM) was 0.11%. It also gave a viability, T/C (second compound 0.003 µM, first compound 3.16 µM) of 0.13% and a viability, T/C (second compound 0.003 µM, first compound 10 µM) of 0.19%.
